{
  "source": "patent US9713614B2",
  "about": "“Combination of HMG-CoA reductase inhibitors with phosphodiesterase 4 inhibitors for the treatment of inflammatory pulmonary diseases” (TAKEDA GMBH, priority 2006, dated 2017)",
  "system": "LPS-induced systemic TNFα release",
  "assay": "Inhibition of LPS-induced systemic TNFα release in rats",
  "format": "in vivo, rat",
  "details": "for ED50: Rattus norvegicus, male Sprague Dawley rats, by gavage 1 h before i.v. LPS 0.1 mg/kg, plasma TNFα by ELISA 90 min after LPS, from dose-response curves",
  "procedure": "Pharmacology: Synergistic Inhibition of LPS-Induced Systemic TNFα Release in Rats by a Combination of ATORVASTATIN Hemi-Calcium Sesqui-Hydrate and 2-{4-[(4aS,8aR)-4-(3,4-dimethoxyphenyl)-1-oxo-4a,5,8,8a-tetrahydro-1H-phthalazin-2-yl]-piperidin-1-yl}-acetamide (COMPOUND A) Animals:\nmale Sprague Dawley rats 200-280 g\nATORVASTATIN hemi-calcium sesqui-hydrate (Alexis Pharmaceuticals, San Diego, Calif., USA) and COMPOUND A (ALTANA Pharma, Konstanz, Germany).\nDrugs were administered by gavage as a methocel/polyethylenglycol 400 suspension 1 h before intravenous administration of LPS (0.1 mg/kg). Euthanasia was induced 90 minutes later by injecting pentobarbital (48 mg/kg) and heparin (1,000 U/kg). Heparinized blood was obtained by heart puncture. Blood was centrifuged (21,000×g, 4° C., 15 min), and plasma samples were kept frozen at −80° C. until determination of TNFα levels by a commercially available ELISA kit (Quantakine®M, Rat TNFα immunoassay, R&D, MN, USA).\nAll data are given as mean±SEM. Significances were calculated on the primary TNFα concentrations in comparison with the LPS-challenged control group using ANOVA with subsequent Dunnett's Test provided by GraphPadPrism software package. Differences with p<0.05 were considered significant. Dose-response curves were calculated by non-linear regression analysis within fixed limits of 0 to 100% inhibition. 50% inhibitory dose (ED50) values were derived from dose-response curves.",
  "data": [
    {"smiles": "CC(C)c1c(C(=O)Nc2ccccc2)c(-c2ccccc2)c(-c2ccc(F)cc2)n1CC[C@@H](O)C[C@H](O)CC(=O)O", "note": "[ATORVASTATIN hemi-calcium sesqui-hydrate, (3S,5R)-7-[3-(anilinocarbonyl)-5-(4-fluorophenyl)-2-isopropyl-4-phenyl-1H-pyrrol-1-yl]-3,5-dihydroxyheptanoic acid]", "values": [
      {"measurement": "decrease of LPS-induced TNFα versus placebo", "setting": "ATORVASTATIN hemi-calcium sesqui-hydrate alone 0.5 mg/kg by gavage, rats, no significant effect", "result": 11, "unit": "%"},
      {"measurement": "ED50", "result": 23, "unit": "mg/kg"}
    ]},
    {"smiles": "COc1ccc(C2=NN(C3CCN(CC(N)=O)CC3)C(=O)[C@@H]3CC=CC[C@H]23)cc1OC", "note": "[COMPOUND A, 2-{4-[(4aS,8aR)-4-(3,4-dimethoxyphenyl)-1-oxo-4a,5,8,8a-tetrahydro-1H-phthalazin-2-yl]-piperidin-1-yl}-acetamide]", "values": [
      {"measurement": "increase of LPS-induced TNFα versus placebo", "setting": "COMPOUND A alone 0.013 mg/kg by gavage, rats, no significant effect", "result": 1, "unit": "%"},
      {"measurement": "ED50", "result": 0.14, "unit": "mg/kg"}
    ]}
  ]
}
